Experimental data: US5677282A (Proscript, Inc., priority 1995, dated 1997)
Several values for one entry are separate records, joined by “and”; a condition that tells them apart may be missing. Equal entries are not always repeated.

Experiments:
Assay type in all cases: biochemical
72 kD gelatinase = biological target: T1, 72 kD gelatinase (Homo sapiens, UniProt P08253); experiment: Assay of 72 KD gelatinase inhibition activity; conditions: 72KD gelatinase 180 pM, H-150 buffer pH 7.4; read-out: Ki(app)
T1 sequence (P08253 110-660): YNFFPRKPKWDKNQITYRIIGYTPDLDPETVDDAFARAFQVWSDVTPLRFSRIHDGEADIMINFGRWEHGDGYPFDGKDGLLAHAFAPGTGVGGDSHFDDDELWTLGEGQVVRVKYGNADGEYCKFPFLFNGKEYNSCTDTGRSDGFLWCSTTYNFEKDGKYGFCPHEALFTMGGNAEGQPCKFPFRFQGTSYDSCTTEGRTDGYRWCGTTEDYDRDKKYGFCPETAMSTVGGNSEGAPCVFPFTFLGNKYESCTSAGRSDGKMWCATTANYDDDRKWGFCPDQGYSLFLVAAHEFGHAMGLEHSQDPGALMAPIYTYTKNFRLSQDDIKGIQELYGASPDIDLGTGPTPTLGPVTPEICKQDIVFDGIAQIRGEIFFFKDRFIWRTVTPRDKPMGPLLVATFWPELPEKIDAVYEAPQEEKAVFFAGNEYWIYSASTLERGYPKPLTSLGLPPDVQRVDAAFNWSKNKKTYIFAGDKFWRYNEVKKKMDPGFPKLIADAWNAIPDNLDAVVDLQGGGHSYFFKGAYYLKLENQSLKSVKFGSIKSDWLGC
Procedure: H-150 buffer, pH 7.4, was prepared by CaCl2 H2O (1.47 grams), NaCl (8.77 grams) and N-[2 -hydroxyethyl]piperazine-N'-[2-ethanesulfonic acid](23.83 grams) to distilled and deionized water and then bring the final volume of the solution to 1 liter. An reaction mixture having a final volume of 250 μL was prepared with H-150 buffer, 40 μgrams of Pro-72KD gelatinase (Strongin, et al., J. Biol. Chem. 268:14033 (1993); Goldberg, et al., J. Biol. Chem., 267:4583 (1992); Kleiner, et al., Biochemistry 32:1583 (1993)) and p-aminophenyl mercuric acetate (Sigma Chemical Co., St. Louis, Mo.) (1 mM). The reaction mixture was then incubated for 3 hours at 25° C.
The reaction mixture was applied to a NAP-5 column (G-25 SEPHADEX™, Pharmacia). Fractions containing […] were identified using 12% SDS polyacrylamide gel electrphoresis and concentrated to about 100-200 μliters by centrifigation (5000 g, 15 minutes).
A solution containing H-150 buffer (2.0 mL), 72KD gelatinase (180 pM) and ethylphenolpoly(ethylene-glycolether)n (Boerhringer Mannheim) (1.3 μM) was prepared in a stirred cuvette. Coumarin peptide substrate (2 μL of a 1 mM solution in dimethyl sulfoxide) was added to the reaction mixture. The rate of hydrolysis was determined for about 100-200 seconds by measuring the fluorescence of the reaction at ex328 nanometers and […] using a Hitachi F-2000 Fluorescence Spectrophotometer.
2 μL of a 10 mM inhibitor stock solution (in dimethyl sulfoxide) is added and the reduction in the rate of hydrolysis is determined. Additional 2 μL aliquots of the stock inhibitor solution is added until a 30% to 70% inhibition is observed. Ki is calculated on the assumption of simple competitive inhibition and that the substrate concentration is much less than Km.

[1] = biological target: human neutrophil collagenase (Homo sapiens, UniProt P22894); experiment: Assay of human neutrophil collagenase inhibition activity; conditions: human neutrophil collagenase 2 nM, H-150 buffer pH 7.4; read-out: Ki(app)
In short: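 Human neutrophil collagenase (2 nM) in HEPES/NaCl/CaCl2 buffer, pH 7.4, was followed by fluorescence of coumarin peptide substrate hydrolysis over about 100-200 s. Inhibitor was added stepwise until 30-70% rate reduction. Ki was calculated assuming simple competitive inhibition with substrate far below Km.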

92 kD gelatinase = 92 kD gelatinase (Homo sapiens, UniProt P14780); experiment: Assay of 92 KD gelatinase inhibition activity; conditions: 92KD gelatinase 25 pM, H-150 buffer pH 7.4; read-out: Ki(app)
In short: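 Pro-92 kD gelatinase activated with 1 mM p-aminophenyl mercuric acetate, 24 h at 37 °C. Assay: 25 pM enzyme in H-150 buffer pH 7.4 with coumarin peptide substrate; hydrolysis rate followed by fluorescence over 100-200 s. Inhibitor titrated in until 30-70% inhibition; Ki calculated assuming simple competitive inhibition with substrate well below Km.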

Sequence of human neutrophil collagenase (P22894 101-467): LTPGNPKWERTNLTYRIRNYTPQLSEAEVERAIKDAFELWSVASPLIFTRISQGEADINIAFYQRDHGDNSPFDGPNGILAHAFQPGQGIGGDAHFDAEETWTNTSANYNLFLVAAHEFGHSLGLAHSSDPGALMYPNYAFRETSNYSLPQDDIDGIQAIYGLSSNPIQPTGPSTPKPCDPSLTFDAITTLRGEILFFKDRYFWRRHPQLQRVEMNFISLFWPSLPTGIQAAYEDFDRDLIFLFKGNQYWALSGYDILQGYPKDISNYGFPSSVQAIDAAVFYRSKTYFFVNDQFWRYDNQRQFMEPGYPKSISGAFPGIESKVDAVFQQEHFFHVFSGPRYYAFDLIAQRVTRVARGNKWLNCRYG
Sequence of 92 kD gelatinase (P14780 107-707): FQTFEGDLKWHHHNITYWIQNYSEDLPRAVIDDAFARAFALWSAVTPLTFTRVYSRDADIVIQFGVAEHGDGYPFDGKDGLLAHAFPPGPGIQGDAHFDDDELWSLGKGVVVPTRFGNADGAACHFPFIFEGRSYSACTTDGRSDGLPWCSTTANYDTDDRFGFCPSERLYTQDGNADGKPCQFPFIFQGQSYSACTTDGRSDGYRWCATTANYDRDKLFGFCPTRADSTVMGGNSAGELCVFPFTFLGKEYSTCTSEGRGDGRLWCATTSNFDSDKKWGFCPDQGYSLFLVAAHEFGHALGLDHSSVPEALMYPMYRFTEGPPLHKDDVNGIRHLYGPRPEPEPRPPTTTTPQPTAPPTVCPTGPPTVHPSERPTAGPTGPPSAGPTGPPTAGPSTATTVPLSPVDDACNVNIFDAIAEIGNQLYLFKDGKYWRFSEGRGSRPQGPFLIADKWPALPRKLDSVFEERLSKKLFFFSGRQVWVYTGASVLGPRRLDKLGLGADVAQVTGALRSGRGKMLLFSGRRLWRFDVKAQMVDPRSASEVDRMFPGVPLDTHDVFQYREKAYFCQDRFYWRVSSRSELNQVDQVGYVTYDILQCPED

## O=C(N[C@@H](Cc1ccc(OCc2ccccc2)cc1)C(=O)N[C@H](C(=O)Nc1n[nH]c(=S)s1)c1ccccc1)OCc1ccccc1
72 kD gelatinase
  Ki: 0.145 nM
[1]
  Ki: 1.57 nM

## CC(C)C[C@H](NC(=O)[C@H](Cc1ccccc1)NC(=O)OCc1ccccc1)C(=O)Nc1n[nH]c(=S)s1 [5-(N-benzyloxycarbonyl-phenylalanyl-leucylamino)-1,3,4-thiadiazole-2-thione]
92 kD gelatinase
  Ki: 2.3 nM
72 kD gelatinase
  Ki: 1.95 nM

## CC(C)[C@H](NC(=O)[C@H](Cc1ccccc1)NC(=O)OCc1ccccc1)C(=O)Nc1n[nH]c(=S)s1 [5-(N-benzyloxycarbonyl-phenylalanyl-valylamino)-1,3,4-thiadiazole-2-thione]
92 kD gelatinase
  Ki: 1.5 nM
72 kD gelatinase
  Ki: 4.6 nM
[1]
  Ki: 4.8 nM and 7.8 nM
